The source of these data is patent US20240368173A1, “TRICYCLIC GPR65 MODULATORS” (PATHIOS THERAPEUTICS LIMITED, priority 2021, published 2024).

As a reminder, the IC50 is the concentration that gives 50% inhibition.

In the assay the target is human recombinant GPR65 (Homo sapiens, UniProt Q8IYL9). As to the kind of experiment: Human GPR65 cAMP HTRF antagonist assay. The format is cell-based. Summed up: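 Antagonism measured as suppression of the cAMP rise when pH is dropped to 7.2 (control wells pH 7.9) in 1321N1 cells stably carrying human GPR65. Cells in KRH with 1 mM IBMX and 200 μM EDTA saw compound 30 min, then acid stimulation 30 min; HTRF cAMP detection, normalised, 4-parameter logistic IC50.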
A general note: TR-FRET usually uses a lanthanide donor and a delayed reading to cut background.

[1] abbreviates: 1321N1-hrGPR65 cells, cAMP HTRF, assay pH 7.2, read-out: hGPR65 IC50 (Activity of selected compounds according to the invention).

Like-named read-outs stand apart in the source and are kept apart here.

Chain of human recombinant GPR65 (Q8IYL9 whole entry): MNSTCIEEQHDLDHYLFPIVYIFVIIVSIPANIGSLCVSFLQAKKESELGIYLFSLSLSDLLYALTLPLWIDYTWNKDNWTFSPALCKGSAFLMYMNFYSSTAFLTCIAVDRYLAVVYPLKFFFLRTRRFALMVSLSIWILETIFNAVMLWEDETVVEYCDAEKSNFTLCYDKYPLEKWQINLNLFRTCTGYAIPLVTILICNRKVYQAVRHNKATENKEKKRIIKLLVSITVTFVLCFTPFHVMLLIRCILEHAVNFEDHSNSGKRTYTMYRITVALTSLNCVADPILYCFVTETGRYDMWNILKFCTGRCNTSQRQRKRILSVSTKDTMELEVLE

Consider `O=C(Nc1cc(Cl)c(Cl)cc1F)N1[C@H]2CC[C@@H]1c1c(C#CCO)cnc(F)c1C2` [Compound 107, (5R,8S)—N-(4,5-Dichloro-2-fluorophenyl)-1-fluoro-4-(3-hydroxyprop-1-yn-1-yl)-6,7,8,9-tetrahydro-5H-5,8-epiminocyclohepta[c]pyridine-10-carboxamide], for which the 50% inhibitory concentration (IC50) under setting [1] fell in the range of 500 to 5000 nM. `O=C(Nc1cc(Cl)c(-c2ccc3nonc3c2)cc1F)N1[C@H]2CC[C@@H]1c1n[nH]c(=O)cc1C2` [Compound 108, (6S,9R)-N-(4-(Benzo[c][1,2,5]oxadiazol-5-yl)-5-chloro-2-fluorophenyl)-3-oxo-3,5,6,7,8,9-hexahydro-2H-6,9-epiminocyclohepta[c]pyridazine-10-carboxamide]: the concentration for half-maximal inhibition (IC50) was below 500 nM.

Regarding `O=C(Nc1cc(Cl)c(-c2ccc(F)nc2)cc1F)N1[C@H]2CC[C@@H]1c1n[nH]c(=O)cc1C2` [Compound 109, (6S,9R)-N-(5-Chloro-2-fluoro-4-(6-fluoropyridin-3-yl)phenyl)-3-oxo-3,5,6,7,8,9-hexahydro-2H-6,9-epiminocyclohepta[c]pyridazine-10-carboxamide], the IC50 is below 500 nM. On the same count and under the same terms, as for `O=C(Nc1cc(C(F)(F)F)on1)N1[C@H]2CC[C@@H]1c1n[nH]c(=O)cc1C2` [Compound 110, (6S,9R)-3-Oxo-N-(5-(trifluoromethyl)isoxazol-3-yl)-3,5,6,7,8,9-hexahydro-2H-6,9-epiminocyclohepta[c]pyridazine-10-carboxamide], the figure is below 500 nM; as for `N#Cc1cc(F)c(NC(=O)N2[C@H]3CC[C@@H]2c2n[nH]c(=O)cc2C3)cc1Cl` [Compound 111, (6S,9R)-N-(5-Chloro-4-cyano-2-fluorophenyl)-3-oxo-3,5,6,7,8,9-hexahydro-2H-6,9-epiminocyclohepta[c]pyridazine-10-carboxamide], below 500 nM.

In the case of `N#Cc1cc(NC(=O)N2[C@H]3CC[C@@H]2c2n[nH]c(=O)cc2C3)c(F)cc1Cl` [Compound 112, (6S,9R)-N-(4-Chloro-5-cyano-2-fluorophenyl)-3-oxo-3,5,6,7,8,9-hexahydro-2H-6,9-epiminocyclohepta[c]pyridazine-10-carboxamide], the half-inhibitory concentration (IC50) is below 500 nM. Turning to `O=C(Nc1cc(Cl)c(-c2ccccc2)cc1F)N1[C@H]2CC[C@@H]1c1n[nH]c(=O)cc1C2` [Compound 113, (6S,9R)-N-(2-Chloro-5-fluoro-[1,1′-biphenyl]-4-yl)-3-oxo-3,5,6,7,8,9-hexahydro-2H-6,9-epiminocyclohepta[c]pyridazine-10-carboxamide], the half-maximal inhibitory concentration (IC50) was below 500 nM. Still for that read-out and setting: next, `COc1cncc(-c2cc(F)c(NC(=O)N3[C@H]4CC[C@@H]3c3n[nH]c(=O)cc3C4)cc2Cl)c1` [Compound 114, (6S,9R)—N-(5-Chloro-2-fluoro-4-(5-methoxypyridin-3-yl)phenyl)-3-oxo-3,5,6,7,8,9-hexahydro-2H-6,9-epiminocyclohepta[c]pyridazine-10-carboxamide]: below 500 nM; `O=C(Nc1cc(Cl)c(-c2cccnc2F)cc1F)N1[C@H]2CC[C@@H]1c1n[nH]c(=O)cc1C2` [Compound 115, (6S,9R)—N-(5-Chloro-2-fluoro-4-(2-fluoropyridin-3-yl)phenyl)-3-oxo-3,5,6,7,8,9-hexahydro-2H-6,9-epiminocyclohepta[c]pyridazine-10-carboxamide]: below 500 nM.

As to `O=C(Nc1cc(-c2cccnc2F)c(-c2cccnc2F)cc1F)N1[C@H]2CC[C@@H]1c1n[nH]c(=O)cc1C2` [Compound 116, (6S,9R)-N-(2-Fluoro-4,5-bis(2-fluoropyridin-3-yl)phenyl)-3-oxo-3,5,6,7,8,9-hexahydro-2H-6,9-epiminocyclohepta[c]pyridazine-10-carboxamide], the IC50 under setting [1] was 500 to 5000 nM. The same measure, in the same setting: as for `CC(=O)Nc1ccc(-c2cc(F)c(NC(=O)N3[C@H]4CC[C@@H]3c3n[nH]c(=O)cc3C4)cc2Cl)cn1` [Compound 117, (6S,9R)-N-(4-(6-Acetamidopyridin-3-yl)-5-chloro-2-fluorophenyl)-3-oxo-3,5,6,7,8,9-hexahydro-2H-6,9-epiminocyclohepta[c]pyridazine-10-carboxamide], the figure is 500 to 5000 nM; as for `Nc1ccc(-c2cc(F)c(NC(=O)N3[C@H]4CC[C@@H]3c3n[nH]c(=O)cc3C4)cc2Cl)cn1` [Compound 118, (6S,9R)-N-(4-(6-Aminopyridin-3-yl)-5-chloro-2-fluorophenyl)-3-oxo-3,5,6,7,8,9-hexahydro-2H-6,9-epiminocyclohepta[c]pyridazine-10-carboxamide], 500 to 5000 nM; as for `O=C(Nc1cc(Cl)c(-c2cn[nH]c2)cc1F)N1[C@H]2CC[C@@H]1c1n[nH]c(=O)cc1C2` [Compound 119, (6S,9R)-N-(5-Chloro-2-fluoro-4-(1H-pyrazol-4-yl)phenyl)-3-oxo-3,5,6,7,8,9-hexahydro-2H-6,9-epiminocyclohepta[c]pyridazine-10-carboxamide], above 5000 nM. Take `Cn1ncc2c(-c3cc(F)c(NC(=O)N4[C@H]5CC[C@@H]4c4n[nH]c(=O)cc4C5)cc3Cl)cccc21` [Compound 120, (6S,9R)-N-(5-Chloro-2-fluoro-4-(1-methyl-1H-indazol-4-yl)phenyl)-3-oxo-3,5,6,7,8,9-hexahydro-2H-6,9-epiminocyclohepta[c]pyridazine-10-carboxamide]: the IC50 was below 500 nM. Still for that read-out and setting: as for `COCCNc1ncc(-c2cc(F)c(NC(=O)N3[C@H]4CC[C@@H]3c3n[nH]c(=O)cc3C4)cc2Cl)cn1` [Compound 121, (6S,9R)-N-(5-Chloro-2-fluoro-4-(2-((2-methoxyethyl)amino)pyrimidin-5-yl)phenyl)-3-oxo-3,5,6,7,8,9-hexahydro-2H-6,9-epiminocyclohepta[c]pyridazine-10-carboxamide], the figure is below 500 nM. `CS(=O)(=O)c1cncc(-c2cc(F)c(NC(=O)N3[C@H]4CC[C@@H]3c3n[nH]c(=O)cc3C4)cc2Cl)c1` [Compound 122, (6S,9R)-N-(5-Chloro-2-fluoro-4-(5-(methylsulfonyl)pyridin-3-yl)phenyl)-3-oxo-3,5,6,7,8,9-hexahydro-2H-6,9-epiminocyclohepta[c]pyridazine-10-carboxamide]: the concentration for half-maximal inhibition (IC50) under setting [1] fell in the range of 500 to 5000 nM.

Consider `Cc1ccc(-c2cc(F)c(NC(=O)N3[C@H]4CC[C@@H]3c3n[nH]c(=O)cc3C4)cc2Cl)cn1` [Compound 123, (6S,9R)-N-(5-Chloro-2-fluoro-4-(6-methylpyridin-3-yl)phenyl)-3-oxo-3,5,6,7,8,9-hexahydro-2H-6,9-epiminocyclohepta[c]pyridazine-10-carboxamide], for which the half-inhibitory concentration (IC50) was below 500 nM. `N#Cc1ccc(-c2cc(F)c(NC(=O)N3[C@H]4CC[C@@H]3c3n[nH]c(=O)cc3C4)cc2Cl)cn1` [Compound 124, (6S,9R)-N-(5-Chloro-4-(6-cyanopyridin-3-yl)-2-fluorophenyl)-3-oxo-3,5,6,7,8,9-hexahydro-2H-6,9-epiminocyclohepta[c]pyridazine-10-carboxamide]: the IC50 is below 500 nM. Still for that read-out and setting: as for `Cc1cnccc1-c1cc(F)c(NC(=O)N2[C@H]3CC[C@@H]2c2n[nH]c(=O)cc2C3)cc1Cl` [Compound 125, (6S,9R)-N-(5-Chloro-2-fluoro-4-(3-methylpyridin-4-yl)phenyl)-3-oxo-3,5,6,7,8,9-hexahydro-2H-6,9-epiminocyclohepta[c]pyridazine-10-carboxamide], the figure is below 500 nM.
